# “Also recorded” adds a separate entry of the source.
# How the values were obtained:
# [1] = target: sphingosine kinase-1/SphK1 (Homo sapiens, UniProt Q9NYA1); conditions: cited from earlier work
# [2] = tested on: rats exposed to hypoxia; conditions: SKI-II 10 mg/kg intraperitoneally, once every other day for 3.5 weeks; vs vehicle; cited from earlier work
# [3] = tested on: bleomycin-challenged mice; conditions: SKI-II eight days post-bleomycin challenge; cited from earlier work
# [4] = tested on: human lung fibroblasts; conditions: SKI-II; cited from earlier work
# [5] = tested on: human lung microvascular endothelial cells (HLMVECs); conditions: SKI-II, cited from earlier work
# [6] = tested on: irradiated C57B1/6 mice; conditions: 20 Gy thoracic irradiation, cited from earlier work
# [7] = tested on: newborn mice exposed to hyperoxia (75%); test: Hyperoxia-induced lung injury in newborn mice; format: in vivo; conditions: PF-543 20 mg/kg/day
# Text: Therefore, PF-543 protected the lungs of the newborn mice from oxygen injury.
# [8] = tested on: human lung fibroblasts; test: TGF-β-mediated differentiation of human lung fibroblasts, PF-543; format: cell-based
# Text: TGF-β-induced fibroblast differentiation was characterized to analyze the expression of fibronectin and α-SMA. […] Additionally, compared with the control mouse lung fibroblast (from wild-type mice), TGF-β-induced fibroblast differentiation and expression of YAP1 were dramatically lower in the lung fibroblast isolated from SphK1^−/− mice. Accordingly, selective inhibition of SphK1 is useful in the prevention and treatment of bleomycin-induced pulmonary fibrosis.
# [9] = cited from earlier work
# [10] = tested on: S1P receptors; conditions: cited from earlier work
# [11] = tested on: HLMVECs; test: Hyperoxia-induced S1P generation, p47phox activation and ROS generation in HLMVECs, PF-543; format: cell-based, human
# Text: HLMVECs were transfected with p47-roGFP prior to exposure to hyperoxia.
# [12] = tested on: bleomycin-challenged C57BL/6J mice; test: Bleomycin-induced pulmonary fibrosis in mice treated with PF-543; format: in vivo; conditions: PF-543 i.p. 5 mg/kg twice per week
# Description: In Vivo Studies. In this analysis, 8 week-old, wild-type, C57BL/6J mice were treated with 1.5 U/kg bleomycin.
# [13] = tested on: adult mice exposed to oxygen (75%); test: Hyperoxia-induced lung injury in adult mice; format: in vivo; conditions: 5 mg/kg/d PF-543 x 2 days prior to oxygen (75%)
# [14] = 0.375 mg/kg myriocin p.o. 3x/week, 0.375 mg/kg
# [15] = PF-543 1-5 μM, 1 hour pretreatment, TGF-β 5 ng/ml, 48 hours
# Chain of sphingosine kinase-1/SphK1 (Q9NYA1 whole entry): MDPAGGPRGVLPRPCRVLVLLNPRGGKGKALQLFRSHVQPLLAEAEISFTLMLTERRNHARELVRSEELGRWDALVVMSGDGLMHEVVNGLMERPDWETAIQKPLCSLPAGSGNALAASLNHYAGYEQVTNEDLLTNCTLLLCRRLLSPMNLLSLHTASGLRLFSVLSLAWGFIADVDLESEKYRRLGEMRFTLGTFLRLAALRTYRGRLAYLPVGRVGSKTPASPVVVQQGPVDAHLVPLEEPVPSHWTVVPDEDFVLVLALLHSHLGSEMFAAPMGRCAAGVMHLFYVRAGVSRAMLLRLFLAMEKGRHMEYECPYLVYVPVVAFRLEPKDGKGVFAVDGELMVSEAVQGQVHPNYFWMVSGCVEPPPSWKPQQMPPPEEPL
smiles,measurement,setting,value
CCCCCCCCCCCCCC#CC(=O)C1COC(C)(C)N1C(=O)OC(C)(C)C (stereo not shown) [SKI 5C],IC50,[1],3.3 µM
"Oc1ccc(Nc2nc(-c3ccc(Cl)cc3)cs2)cc1 [SKI-II, 4-[[4-(4-chlorophenyl)-2-thiazolyl]amino]-phenol]","development of HPH (RVSP, RVH, pulmonary vascular remodeling)",[2],prevents
same,bleomycin-induced mortality,[3],reduces
same,bleomycin-induced pulmonary fibrosis,[3],reduces
same,S1P generation and TGF-β-mediated signal transduction,[4],attenuates
same,ROS production under hyperoxia (DCFDA fluorescence),[5]; 24 hours before hyperoxia (95% O2) for 3 hours,blocked
same,hyperoxia-induced S1P generation,[5],attenuates
N=C(N)[C@@H]1CCCN1C(=O)c1ccc(-c2nc(-c3cccc(CCC4CCCCC4)c3)co2)cc1 [Compound 5],selectivity for SphK1 over SphK2,[1],180 fold
CCCCCCCCCCCCCCC[C@@H](O)C(C)N (stereo partly shown) [Compound 55-21],IC50,[1],7.1 µM
same,selectivity for SphK1 over SphK2,[1],~108 fold
N=C(N)C1(C(=O)NCCCCCCCCCCOCC2CCCCC2)CC1 [Compound 4],selectivity for SphK1 over SphK2,[1],470 fold
CCCCCCCCCCCCc1ccc(C(=O)NC2(C(=N)N)CC2)cc1 [Compound 1],selectivity for SphK1 over SphK2,[1],5 fold
CCCCCCC(=O)CCCCCC/C=C/C[C@@H](O)[C@H](O)[C@@](N)(CO)C(=O)O [myriocin],radiation-induced pulmonary fibrosis (onset of RIF),[6]; [14],decreases; also recorded: delays
same,radiation-induced pulmonary inflammation,[6]; [14],decreases; also recorded: reduces
same,animal lifespan (survival),[6]; 0.375 mg/kg myriocin p.o. 3x/week,increased
same,SphK2 mRNA levels and protein expression,[6]; myriocin,Neither parameter is affected
same,"expression of markers of fibrogenesis (collagen, α-SMA) in the lung",[6]; myriocin,decreased
same,radiation-increased SphK1 mRNA levels and SphK1 protein expression,[6]; myriocin,decreased
same,radiation-induced increase in total SphK activity in lung tissue,[6]; myriocin,hinder; also recorded: inhibition
CCCCCCCCCCCCc1ccc(NC(=O)C2(C(=N)N)CC2)cc1 [Compound 2],Ki,[1],0.3 µM
same,selectivity for SphK1 over SphK2,[1],40 fold
"Cc1cc(CS(=O)(=O)c2ccccc2)cc(OCc2ccc(CN3CCC[C@@H]3CO)cc2)c1 [PF-543, [(2R)-1-[[4-[[3-(benzenesulfonylmethyl)-5-methylphenoxy]methyl]phenyl]methyl]pyrrolidin-2-yl] methanol]",lung structure,[7],well preserved
same,TGF-β-induced expression of fibronectin and α-SMA,[8]; [15],decreased; also recorded: dramatically inhibited
same,TGF-β-mediated fibroblast differentiation to myofibroblasts,[8]; [15],attenuated; also recorded: dramatically inhibited
same,TGF-β-induced expression of YAP1,"[8]; PF-543 pretreatment, TGF-β",attenuated; also recorded: dramatically inhibited
same,cell permeability,[9],cell-permeable
same,affinity toward S1P receptors,[10],does not exhibit any affinity
same,attenuation of hyperoxia-mediated [32P]S1P generation,[11],> 80%
same,hyperoxia-induced ROS generation,[11],attenuates; also recorded: inhibited
same,exogenous S1P-mediated translocation of p47phox to cell periphery / activation,[11]; exogenous S1P instead of hyperoxia,not affected; also recorded: did not affect
same,hyperoxia-induced aggregation and stimulation of p47phox biosensor protein (p47-roGFP),"[11]; live cell imaging, HLMVECs transfected with p47-roGFP",suppressed
same,hyperoxia-induced p47phox translocation to cell periphery / activation of p47phox,[11]; pre-treated with PF-543,inhibited; also recorded: attenuated
same,protection against lung injury and pulmonary fibrosis,"[12]; 1.5 U/kg bleomycin, day 7 to 21 post-bleomycin, 5 mg/kg",ameliorates; also recorded: partly protected
same,TGF-β levels in bronchoalveolar lavage (BAL) fluids,[12]; day 7 to 21 post-bleomycin,decreased
same,expression of α-SMA and fibronectin in lung tissues,[12]; day 7 to 21 post-bleomycin,decreased
same,total collagen deposition,"[12]; day 7 to 21 post-bleomycin, vs bleomycin without PF-543",decreased
same,Ashcroft's score,[12]; day 21 to 42 post-bleomycin,decrease
same,collagen deposition,[12]; day 21 to 42 post-bleomycin,decrease
same,resolution of pulmonary fibrosis,[12]; day 21 to 42 post-bleomycin,enhanced resolution
same,BAL fluid total protein concentration,[13],decreases; also recorded: reduced
same,BAL inflammatory cell infiltrate (WBC count),[13],decreases; also recorded: reduced
same,hyperoxia-induced lung injury,[13],attenuated
same,lung inflammatory fluid infiltration (lung histology),[13],reduced

# Reference: patent US11026918B2, “Method of preventing or treating a pulmonary disease or condition” (THE BOARD OF TRUSTEES OF THE UNIVERSITY OF ILLINOIS, priority 2014, dated 2021)
